These results are taken from US9636418B2 (priority 2013, dated 2017).

In experiment [1] the target is hNav1.4 (Homo sapiens, UniProt P35499). The experiment can be described thus: cell-based. Particulars: for IC50: PatchXpress, read-out: PX hNav1.4 Tonic IC50; for Nav1.4/Nav1.7: ratio of PX tonic IC50 values.
Experiment [2] deals with hNav1.7 (Homo sapiens, UniProt Q15858). The experiment can be described thus: cell-based. The class given is cell-based.
The mark [3] stands for this setting: PatchXpress, tonic block, read-out: PX hNav1.7 Tonic IC50.
Where [4] appears, read: PatchXpress, * = at high concentrations compound would wash off slowly or not at all, read-out: PX hNav1.7 Tonic IC50.

Where “and” joins values, the source holds several entries; their conditions need not be identical. Identical values can stand only once. Like-named read-outs stand apart in the source and are kept apart here.

Sequence of hNav1.4 (P35499 whole entry): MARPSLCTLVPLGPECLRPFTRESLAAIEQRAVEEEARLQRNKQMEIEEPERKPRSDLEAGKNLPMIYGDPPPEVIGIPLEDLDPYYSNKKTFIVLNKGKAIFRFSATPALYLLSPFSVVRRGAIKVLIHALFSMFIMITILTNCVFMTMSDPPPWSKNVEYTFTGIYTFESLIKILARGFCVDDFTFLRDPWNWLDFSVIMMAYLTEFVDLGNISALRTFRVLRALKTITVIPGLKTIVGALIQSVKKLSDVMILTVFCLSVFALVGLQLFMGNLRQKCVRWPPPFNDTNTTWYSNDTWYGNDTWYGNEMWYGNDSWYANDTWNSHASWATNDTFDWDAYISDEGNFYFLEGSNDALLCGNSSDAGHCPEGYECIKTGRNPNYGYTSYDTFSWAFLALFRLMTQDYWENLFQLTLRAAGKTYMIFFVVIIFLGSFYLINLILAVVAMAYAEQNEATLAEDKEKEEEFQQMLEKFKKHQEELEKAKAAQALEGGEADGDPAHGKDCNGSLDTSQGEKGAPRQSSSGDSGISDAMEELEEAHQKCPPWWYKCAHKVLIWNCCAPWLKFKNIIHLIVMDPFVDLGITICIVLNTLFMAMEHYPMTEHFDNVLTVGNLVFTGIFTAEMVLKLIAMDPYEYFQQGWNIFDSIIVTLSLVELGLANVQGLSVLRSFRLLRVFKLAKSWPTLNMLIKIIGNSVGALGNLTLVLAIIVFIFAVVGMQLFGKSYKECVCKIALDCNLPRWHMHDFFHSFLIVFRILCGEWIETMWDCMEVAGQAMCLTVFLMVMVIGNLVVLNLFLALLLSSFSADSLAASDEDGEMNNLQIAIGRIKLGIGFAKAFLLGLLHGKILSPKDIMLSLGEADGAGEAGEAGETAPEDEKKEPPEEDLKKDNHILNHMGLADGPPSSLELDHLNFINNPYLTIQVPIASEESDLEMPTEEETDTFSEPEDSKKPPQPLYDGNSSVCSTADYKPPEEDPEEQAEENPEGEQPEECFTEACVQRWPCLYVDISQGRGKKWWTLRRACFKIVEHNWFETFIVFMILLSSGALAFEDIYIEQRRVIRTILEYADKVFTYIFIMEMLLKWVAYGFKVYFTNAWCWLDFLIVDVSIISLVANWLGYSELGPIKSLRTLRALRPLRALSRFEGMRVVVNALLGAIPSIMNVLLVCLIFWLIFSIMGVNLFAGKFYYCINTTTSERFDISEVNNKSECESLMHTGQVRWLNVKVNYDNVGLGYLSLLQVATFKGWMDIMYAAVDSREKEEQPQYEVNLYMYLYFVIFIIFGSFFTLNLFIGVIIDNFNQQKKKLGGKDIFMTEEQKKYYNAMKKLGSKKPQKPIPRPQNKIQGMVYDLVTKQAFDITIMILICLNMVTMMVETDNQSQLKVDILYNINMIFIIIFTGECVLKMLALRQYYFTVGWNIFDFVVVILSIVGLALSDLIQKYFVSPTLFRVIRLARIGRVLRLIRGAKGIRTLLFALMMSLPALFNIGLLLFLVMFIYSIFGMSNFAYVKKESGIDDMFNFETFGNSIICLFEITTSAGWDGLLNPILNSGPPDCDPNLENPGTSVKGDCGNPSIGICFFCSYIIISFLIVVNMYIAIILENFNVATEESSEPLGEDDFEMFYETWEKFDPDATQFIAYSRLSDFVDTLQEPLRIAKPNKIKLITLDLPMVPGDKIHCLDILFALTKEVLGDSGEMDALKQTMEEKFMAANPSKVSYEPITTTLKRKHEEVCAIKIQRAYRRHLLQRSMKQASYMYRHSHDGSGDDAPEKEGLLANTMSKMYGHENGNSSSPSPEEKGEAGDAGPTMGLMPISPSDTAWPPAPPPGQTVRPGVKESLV
Sequence of hNav1.7 (Q15858 whole entry): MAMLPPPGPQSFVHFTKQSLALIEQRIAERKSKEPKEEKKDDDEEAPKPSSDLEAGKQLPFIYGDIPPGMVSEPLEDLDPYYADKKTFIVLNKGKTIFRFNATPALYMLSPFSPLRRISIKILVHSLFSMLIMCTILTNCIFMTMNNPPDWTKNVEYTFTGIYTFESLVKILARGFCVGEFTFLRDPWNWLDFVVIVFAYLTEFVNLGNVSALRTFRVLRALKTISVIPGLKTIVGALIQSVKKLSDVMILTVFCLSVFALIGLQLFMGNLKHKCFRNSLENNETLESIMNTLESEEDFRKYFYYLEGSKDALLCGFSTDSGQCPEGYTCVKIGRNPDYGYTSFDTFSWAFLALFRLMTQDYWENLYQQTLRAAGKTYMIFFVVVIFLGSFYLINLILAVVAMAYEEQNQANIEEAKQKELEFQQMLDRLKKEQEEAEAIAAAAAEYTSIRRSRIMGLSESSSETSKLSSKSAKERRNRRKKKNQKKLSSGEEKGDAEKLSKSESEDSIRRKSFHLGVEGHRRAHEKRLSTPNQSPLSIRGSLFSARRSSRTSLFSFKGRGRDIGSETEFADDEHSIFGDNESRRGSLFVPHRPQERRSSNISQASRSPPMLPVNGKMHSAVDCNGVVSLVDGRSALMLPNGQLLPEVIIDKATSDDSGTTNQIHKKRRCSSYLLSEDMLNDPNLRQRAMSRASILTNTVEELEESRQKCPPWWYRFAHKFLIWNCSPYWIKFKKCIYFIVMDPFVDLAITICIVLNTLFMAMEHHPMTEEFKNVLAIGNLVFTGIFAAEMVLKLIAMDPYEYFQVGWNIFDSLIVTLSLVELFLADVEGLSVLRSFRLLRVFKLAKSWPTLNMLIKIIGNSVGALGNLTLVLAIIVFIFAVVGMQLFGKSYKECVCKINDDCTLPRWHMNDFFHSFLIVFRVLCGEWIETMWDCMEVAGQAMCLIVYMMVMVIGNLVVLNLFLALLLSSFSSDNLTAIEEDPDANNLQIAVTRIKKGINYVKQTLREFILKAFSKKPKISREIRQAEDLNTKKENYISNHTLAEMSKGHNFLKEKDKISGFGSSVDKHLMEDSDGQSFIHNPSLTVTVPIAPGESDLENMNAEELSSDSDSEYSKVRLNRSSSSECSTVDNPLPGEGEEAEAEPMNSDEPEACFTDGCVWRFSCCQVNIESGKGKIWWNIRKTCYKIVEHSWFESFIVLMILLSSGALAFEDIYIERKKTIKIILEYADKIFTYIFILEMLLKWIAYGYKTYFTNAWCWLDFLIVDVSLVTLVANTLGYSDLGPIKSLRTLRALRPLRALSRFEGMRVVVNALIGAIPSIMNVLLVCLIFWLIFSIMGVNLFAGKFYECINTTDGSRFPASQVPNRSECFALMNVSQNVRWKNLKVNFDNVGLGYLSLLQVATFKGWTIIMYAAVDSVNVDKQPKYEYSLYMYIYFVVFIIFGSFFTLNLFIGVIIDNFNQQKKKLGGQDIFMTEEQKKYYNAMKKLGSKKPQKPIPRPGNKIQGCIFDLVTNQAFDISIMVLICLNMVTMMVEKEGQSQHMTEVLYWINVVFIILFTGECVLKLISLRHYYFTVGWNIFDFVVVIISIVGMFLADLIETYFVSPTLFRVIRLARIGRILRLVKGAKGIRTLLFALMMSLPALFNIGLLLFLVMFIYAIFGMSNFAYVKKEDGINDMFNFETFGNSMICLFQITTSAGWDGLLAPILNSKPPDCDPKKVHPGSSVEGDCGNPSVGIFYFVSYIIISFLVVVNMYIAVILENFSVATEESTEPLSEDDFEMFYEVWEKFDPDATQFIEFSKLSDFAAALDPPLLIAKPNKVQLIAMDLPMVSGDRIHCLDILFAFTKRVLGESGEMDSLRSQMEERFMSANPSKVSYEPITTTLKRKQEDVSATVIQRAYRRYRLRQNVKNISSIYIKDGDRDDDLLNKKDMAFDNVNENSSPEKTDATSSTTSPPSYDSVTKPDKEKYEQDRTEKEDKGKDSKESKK

For `C#CC[C@H](N)C(=O)NCCCC[C@@H]1NC(=O)[C@H](CCCNC(=N)N)NC(=O)[C@H](CCCCN)NC(=O)[C@H](CO)NC(=O)[C@H](CC(=O)O)NC(=O)[C@@H]2CSSC[C@@H]3NC(=O)[C@H](CCCNC(=N)N)NC(=O)[C@H](CC(C)C)NC(=O)CNC(=O)[C@H](CCC(=O)O)NC(=O)[C@H](CSSC[C@H](NC(=O)[C@H](Cc4ccc(O)cc4)NC(=O)[C@@H](N)CCC)C(=O)N[C@@H](CCC(N)=O)C(=O)N[C@@H](CCCCN)C(=O)N[C@@H](Cc4c[nH]c5ccccc45)C(=O)N[C@@H](CC(C)C)C(=O)N[C@@H](Cc4c[nH]c5ccccc45)C(=O)N[C@@H]([C@@H](C)O)C(=O)N2)NC(=O)[C@H](CSSC[C@@H](C(=O)N[C@@H](CCCNC(=N)N)C(=O)N[C@@H](CCCCN)C(=O)N[C@H](C(=O)N[C@H](C(N)=O)[C@@H](C)CC)[C@@H](C)CC)NC(=O)[C@H](Cc2c[nH]c4ccccc24)NC(=O)[C@H](CC(C)C)NC(=O)[C@H](CCCCN)NC3=O)NC1=O` [compound 438], the half-maximal inhibitory concentration (IC50) is 16.1 nM in experiment [1] (tonic block); 2.38 nM and 1.57 nM in experiment [2] (setting [3]). The Nav1.4/Nav1.7 in experiment [1] was found to be 7. For the molecule `C#CC[C@H](N)C(=O)NCCOCCOCCOCCOCCC(=O)NCCCC[C@@H]1NC(=O)[C@H](CCCNC(=N)N)NC(=O)[C@H](CCCCN)NC(=O)[C@H](CO)NC(=O)[C@H](CC(=O)O)NC(=O)[C@@H]2CSSC[C@@H]3NC(=O)[C@H](CCCNC(=N)N)NC(=O)[C@H](CC(C)C)NC(=O)CNC(=O)[C@H](CCC(=O)O)NC(=O)[C@H](CSSC[C@H](NC(=O)[C@H](Cc4ccc(O)cc4)NC(=O)[C@@H](N)CCC)C(=O)N[C@@H](CCC(N)=O)C(=O)N[C@@H](CCCCN)C(=O)N[C@@H](Cc4c[nH]c5ccccc45)C(=O)N[C@@H](CCCC)C(=O)N[C@@H](Cc4c[nH]c5ccccc45)C(=O)N[C@@H]([C@@H](C)O)C(=O)N2)NC(=O)[C@H](CSSC[C@@H](C(=O)N[C@@H](CCCNC(=N)N)C(=O)N[C@@H](CCCCN)C(=O)N[C@H](C(=O)N[C@H](C(N)=O)[C@@H](C)CC)[C@@H](C)CC)NC(=O)[C@H](Cc2c[nH]c4ccccc24)NC(=O)[C@H](CC(C)C)NC(=O)[C@H](CCCCN)NC3=O)NC1=O` [compound 432], the half-inhibitory concentration (IC50) in experiment [1] (tonic block) was 16.5 nM; in experiment [2] (setting [3]), 1.43 nM and 1.56 nM. Further, in experiment [1], the Nav1.4/Nav1.7 was determined as 12. Consider `CCCC[C@@H]1NC(=O)[C@H](Cc2c[nH]c3ccccc23)NC(=O)[C@H](CCCCN)NC(=O)[C@H](CCC(N)=O)NC(=O)[C@@H](NC(=O)[C@@H](N)Cc2cn(CCCOCCOCCOCCOCCOCCOCCOCCOCCOCCOCCN)nn2)CSSC[C@@H]2NC(=O)[C@@H]3CSSC[C@@H](C(=O)N[C@@H](CCCNC(=N)N)C(=O)N[C@@H](CCCCN)C(=O)N[C@H](C(=O)N[C@H](C(N)=O)[C@@H](C)CC)[C@@H](C)CC)NC(=O)[C@H](Cc4c[nH]c5ccccc45)NC(=O)[C@H](CC(C)C)NC(=O)[C@H](CCCCN)NC(=O)[C@H](CSSC[C@H](NC(=O)[C@H]([C@@H](C)O)NC(=O)[C@H](Cc4c[nH]c5ccccc45)NC1=O)C(=O)N[C@@H](CC(=O)O)C(=O)N[C@@H](CO)C(=O)N[C@@H](CCCCN)C(=O)N[C@@H](CCCNC(=N)N)C(=O)N[C@@H](C)C(=O)N3)NC(=O)[C@H](CCC(=O)O)NC(=O)[C@H](CC(C)C)NC(=O)CNC(=O)[C@H](CCC(=O)O)NC2=O` [compound 407], for which the half-maximal inhibitory concentration (IC50) in experiment [1] (* = at high concentrations compound would wash off slowly or not at all) was 549 nM; in experiment [2] (setting [4]), 6.48 nM. `CCCC[C@@H]1NC(=O)[C@H](Cc2c[nH]c3ccccc23)NC(=O)[C@H](CCCCN)NC(=O)[C@H](CCC(N)=O)NC(=O)[C@@H](NC(=O)[C@H](Cc2ccc(O)cc2)NC(=O)[C@@H](N)Cc2ccc(O)cc2)CSSC[C@@H]2NC(=O)[C@@H]3CSSC[C@@H](C(=O)N[C@@H](CCCNC(=N)N)C(=O)N[C@@H](CCCCN)C(=O)N[C@H](C(=O)N[C@H](C(N)=O)[C@@H](C)CC)[C@@H](C)CC)NC(=O)[C@H](Cc4c[nH]c5ccccc45)NC(=O)[C@H](CC(C)C)NC(=O)[C@H](CCCCN)NC(=O)[C@H](CSSC[C@H](NC(=O)[C@H]([C@@H](C)O)NC(=O)[C@H](Cc4c[nH]c5ccccc45)NC1=O)C(=O)N[C@@H](CC(=O)O)C(=O)N[C@@H](CO)C(=O)N[C@@H](CCCCN)C(=O)N[C@@H](CCCNC(=N)N)C(=O)N[C@@H](C)C(=O)N3)NC(=O)[C@H](CCCNC(=N)N)NC(=O)[C@H](CC(C)C)NC(=O)CNC(=O)[C@H](CCC(=O)O)NC2=O` [compound 365]: the IC50 in experiment [2] (setting [4]) came to 0.372 nM.

For the molecule `CCCC[C@@H]1NC(=O)[C@H](Cc2c[nH]c3ccccc23)NC(=O)[C@H](CCCCN)NC(=O)[C@H](CCC(N)=O)NC(=O)[C@@H](NC(=O)[C@H](Cc2ccc(O)cc2)NC(=O)CN)CSSC[C@@H]2NC(=O)[C@@H]3CSSC[C@@H](C(=O)N[C@@H](CCCNC(=N)N)C(=O)N[C@@H](CCCCN)C(=O)N[C@H](C(=O)N[C@H](C(N)=O)[C@@H](C)CC)[C@@H](C)CC)NC(=O)[C@H](Cc4c[nH]c5ccccc45)NC(=O)[C@H](CC(C)C)NC(=O)[C@H](CCCCN)NC(=O)[C@H](CSSC[C@H](NC(=O)[C@H]([C@@H](C)O)NC(=O)[C@H](Cc4c[nH]c5ccccc45)NC1=O)C(=O)N[C@@H](CC(=O)O)C(=O)N[C@@H](CO)C(=O)N[C@@H](CCCCN)C(=O)N[C@@H](CCCNC(=N)N)C(=O)N[C@@H](C)C(=O)N3)NC(=O)[C@H](CCCNC(=N)N)NC(=O)[C@H](CC(C)C)NC(=O)CNC(=O)[C@H](CCC(=O)O)NC2=O` [compound 359], the IC50 in experiment [2] (setting [4]) turned out to be 0.384 nM. For `C#CC[C@H](N)C(=O)NCCCC[C@@H]1NC(=O)[C@H](CCCNC(=N)N)NC(=O)[C@H](CCCCN)NC(=O)[C@H](CO)NC(=O)[C@H](CC(=O)O)NC(=O)[C@@H]2CSSC[C@@H]3NC(=O)[C@H](CCC(=O)O)NC(=O)[C@H](CC(C)C)NC(=O)CNC(=O)[C@H](CCC(=O)O)NC(=O)[C@H](CSSC[C@H](NC(=O)[C@H](Cc4ccc(O)cc4)NC(=O)[C@@H](N)CCC)C(=O)N[C@@H](CCC(N)=O)C(=O)N[C@@H](CCCCN)C(=O)N[C@@H](Cc4c[nH]c5ccccc45)C(=O)N[C@@H](CC(C)C)C(=O)N[C@@H](Cc4c[nH]c5ccccc45)C(=O)N[C@@H]([C@@H](C)O)C(=O)N2)NC(=O)[C@H](CSSC[C@@H](C(=O)N[C@@H](CCCNC(=N)N)C(=O)N[C@@H](CCCCN)C(=O)N[C@@H](Cc2ccc(O)cc2)C(=O)N[C@H](C(N)=O)[C@@H](C)CC)NC(=O)[C@H](Cc2c[nH]c4ccccc24)NC(=O)[C@H](CC(C)C)NC(=O)[C@H](CCCCN)NC3=O)NC1=O` [compound 440], the IC50 in experiment [2] (setting [3]) was 1.95 nM.

On to [1-Nal7]JzTx-V(1-29) [SEQ ID NO: 30], for which the “hNav1.7 potency/activity compared with wild type JzTx-V” value in experiment [2] was “retained hNav1.7 activity similar to the wild type peptide”. On to `C#CC[C@H](N)C(=O)NCCCC[C@@H]1NC(=O)[C@H](CCCNC(=N)N)NC(=O)[C@H](CCCCN)NC(=O)[C@H](CO)NC(=O)[C@H](CC(=O)O)NC(=O)[C@@H]2CSSC[C@@H]3NC(=O)[C@H](CCC(=O)O)NC(=O)[C@H](CC(C)C)NC(=O)CNC(=O)[C@H](CCC(=O)O)NC(=O)[C@H](CSSC[C@H](NC(=O)[C@H](Cc4ccc(O)cc4)NC(=O)[C@@H](N)CCC)C(=O)N[C@@H](CCC(N)=O)C(=O)N[C@@H](CCCCN)C(=O)N[C@@H](Cc4c[nH]c5ccccc45)C(=O)N[C@@H](CCCC)C(=O)N[C@@H](Cc4c[nH]c5ccccc45)C(=O)N[C@@H]([C@@H](C)O)C(=O)N2)NC(=O)[C@H](CSSC[C@@H](C(=O)N[C@@H](CCCNC(=N)N)C(=O)N[C@@H](CCCCN)C(=O)N[C@H](C(=O)N[C@@H](Cc2c[nH]c4ccccc24)C(N)=O)[C@@H](C)CC)NC(=O)[C@H](Cc2c[nH]c4ccccc24)NC(=O)[C@H](CC(C)C)NC(=O)[C@H](CCCCN)NC3=O)NC1=O` [compound 437], for which the IC50 in experiment [2] (setting [3]) came to 9.59 nM.

For [1-Nal24]JzTx-V(1-29) [SEQ ID NO: 43], the “hNav1.7 potency/activity compared with wild type JzTx-V” value in experiment [2] is “loses considerable activity against hNav1.7”.

For “[Phe6,Atz(500 Da EtO-PEG*-{[Phe6,Atz13*]GpTx-1(1-34)})13]GpTx-1(1-34) [Homodimeric Conjugate No. 4]”, in experiment [2], the Wash out result is “Yes”. For the same molecule, in experiment [2] (read-out: Nav1.7 PX IC50), the IC50 worked out at 19 nM. As to `CCCC[C@@H]1NC(=O)[C@H](Cc2c[nH]c3ccccc23)NC(=O)[C@H](CCCCN)NC(=O)[C@H](CCC(N)=O)NC(=O)[C@@H](NC(=O)[C@H](Cc2ccc(O)cc2)NC(=O)[C@H](C)N)CSSC[C@@H]2NC(=O)[C@@H]3CSSC[C@@H](C(=O)N[C@@H](CCCNC(=N)N)C(=O)N[C@@H](CCCCN)C(=O)N[C@H](C(=O)N[C@H](C(N)=O)[C@@H](C)CC)[C@@H](C)CC)NC(=O)[C@H](Cc4c[nH]c5ccccc45)NC(=O)[C@H](CC(C)C)NC(=O)[C@H](CCCCN)NC(=O)[C@H](CSSC[C@H](NC(=O)[C@H]([C@@H](C)O)NC(=O)[C@H](Cc4c[nH]c5ccccc45)NC1=O)C(=O)N[C@@H](CC(=O)O)C(=O)N[C@@H](CO)C(=O)N[C@@H](CCCCN)C(=O)N[C@@H](CCCNC(=N)N)C(=O)N[C@@H](C)C(=O)N3)NC(=O)[C@H](CCCNC(=N)N)NC(=O)[C@H](CC(C)C)NC(=O)CNC(=O)[C@H](CCC(=O)O)NC2=O` [compound 357], in experiment [2] (setting [4]), the IC50 is 0.307 nM. As to `C=CC[C@H](N)C(=O)N[C@@H](Cc1ccc(O)cc1)C(=O)N[C@H]1CSSC[C@@H]2NC(=O)[C@@H]3CSSC[C@@H](C(=O)N[C@@H](CCCNC(=N)N)C(=O)N[C@@H](CCCCN)C(=O)N[C@H](C(=O)N[C@H](C(N)=O)[C@@H](C)CC)[C@@H](C)CC)NC(=O)[C@H](Cc4c[nH]c5ccccc45)NC(=O)[C@H](CC(C)C)NC(=O)[C@H](CCCCN)NC(=O)[C@H](CSSC[C@H](NC(=O)[C@H]([C@@H](C)O)NC(=O)[C@H](Cc4c[nH]c5ccccc45)NC(=O)[C@H](CCCC)NC(=O)[C@H](Cc4c[nH]c5ccccc45)NC(=O)[C@H](CCCCN)NC(=O)[C@H](CCC(N)=O)NC1=O)C(=O)N[C@@H](CC(=O)O)C(=O)N[C@@H](CO)C(=O)N[C@@H](CCCCN)C(=O)N[C@@H](CCCNC(=N)N)C(=O)N[C@@H](C)C(=O)N3)NC(=O)[C@H](CCCNC(=N)N)NC(=O)[C@H](CC(C)C)NC(=O)CNC(=O)[C@H](CCC(=O)O)NC2=O` [compound 367], in experiment [2] (setting [4]), the IC50 is 0.488 nM.

A word on the IC50: it is the concentration that inhibits the measured activity by half.
